Measured values taken from patent publication US10808005B2, “Ligand for orphan nuclear receptor Nur77 and uses thereof” (IXMEDICINE (XIAMEN) BIOLOGICAL TECHNOLOGY COMPANY LIMITED, priority 2016, dated 2020).

Legend:
[1] = tested on: IκBα and phosphorylated IKKα/β; assay: Immunoblot of IκBα and phosphorylated IKKα/β in TNFα-treated HepG2 cells; type: cell-based; details: TNFα 20 ng/mL 30 minutes
Source text: IκBα and phosphorylated IKKα/β in the cells were then detected by WB.
In addition, HepG2 cells were also applied in the experiment. […] IκBα in the cells was then detected by WB.

IκBα [2] = assay: Immunoblot of IκBα in MEF cells; type: cell-based; details: MEF cells expressing Nur77
Source text: (§1) The above results were also confirmed by using MEF cells and Nur77−/−MEF cells (i.e., MEF cells not expressing Nur77). […] Subsequently, IκBα in the cells was detected by WB.

IκBα [3] = assay: Immunoblot of IκBα in Nur77−/−MEF cells; type: cell-based
Source text: as §1

mTOR signaling pathway = assay: Immunoblot of p-mTOR, p-P70S6K, p-S6 in TNFα-treated starved MDA-MB-231 cells; type: cell-based
[4] = tested on: BT474, ZR-75-1, BT549, HCC1937, HS578T, MCF-7, and T47D; assay: Inhibition rate on seven breast cancer cells; type: cell-based; details: various breast cancer cells, FIG. 11C
breast cancer = assay: PYVT mice under LFD or HFD feeding, intragastric administration; type: in vivo, WT mice and PYVT mice
Source text: The above conclusions can be reflected in the size of tumor tissue and the change of body weight of mice.

tumors [5] = assay: Tumor inhibition in wild type PYVT mice; type: in vivo; details: YXY101 5 mg/kg or XS0284 10 mg/kg intragastric, two weeks
tumors [6] = assay: Tumor inhibition in Nur77-knocked-out PYVT mice; type: in vivo, Nur77-knocked-out type; details: Nur77-deficient; YXY101 5 mg/kg or XS0284 10 mg/kg intragastric, two weeks
[7] = Acute toxicity model mice, histopathology; type: in vivo
Source text: The tissue morphologies of the heart, liver, small intestine, white fat and kidney were observed by Histopathological method.

[8] = single intragastric injection 200 mg/kg
[9] = single intraperitoneal injection 20 mg/kg

## Cc1c(O)c(O)cc2c1C(S(=O)(=O)[O-])C=C1[C@@]2(C)CC[C@@]2(C)[C@@H]3C[C@](C)(C(=O)O)CC[C@]3(C)CC[C@]12C.[Na+] (stereo partly drawn) [XS0284]
[1]
  TNFα-induced degradation of IκBα: capable of inhibiting TNFα-induced degradation of IκBα
IκBα [2]
  TNFα-induced degradation of IκBα: able to inhibit TNFα-induced degradation of IκBα
IκBα [3]
  TNFα-induced degradation of IκBα: lost the ability to inhibit IκBα degradation
mTOR signaling pathway
  inhibitory effect on P-mTOR, P-p70S6K and P—S6: strong inhibitory effect
[4]
  inhibitory effects on proliferation compared with YXY101: close or even stronger than that of YXY101
Breast cancer; high-fat feeding conditions
  inhibition effect on breast cancer compared with YXY101: stronger than that of YXY101
Breast cancer; low-fat feeding conditions
  inhibitory effect on breast cancer compared with YXY101: close to that of YXY101
Breast cancer; low-fat or high-fat feeding conditions
  development of breast cancer: can significantly inhibit the development of breast cancer
Tumors [5]
  tumor inhibition (tumor tissue size): effective in inhibiting tumors in wild-type mice
Tumors [6]
  tumor inhibition (tumor tissue size): neither of the two compounds could exert an inhibitory effect
[7]; intragastric injection group
  toxic effect compared with YXY101: weaker toxic effect on the liver and small intestine than YXY101
[7]; intraperitoneal injection group
  toxicity compared with YXY101: less toxicity to kidney and adipose than YXY101
[7]; overall
  acute toxicity to animals compared with YXY101: less acute toxicity to animals than YXY101
[7]; [8]
  adipose tissue morphology: the adipose tissue cells had clear boundaries, and were neatly arranged, and the fiber breakage was reduced
  heart tissue morphology: relatively clear boundaries, the myocardial fibers were arranged relatively neatly and had obvious boundaries
  liver tissue morphology: the hepatocytes in the liver tissue had obvious boundaries and clear structure
  small intestine tissue morphology: the intestinal tissue had clear boundaries, the cells were plump, the intestinal villi were neatly arranged and had obvious boundaries
[7]; [9]
  adipose tissue morphology: the adipose tissue cells had clear boundaries and were arranged neatly, the fiber breakage was reduced
  heart tissue morphology: relatively clear boundaries, the myocardial fibers were relatively neatly arranged and had obvious boundaries
  kidney tissue morphology: the kidney tissue had clear glomerular boundaries, the cells were full, and there was a small amount of inflammatory cell infiltration
  liver tissue morphology: the hepatocytes in the liver tissue had obvious boundaries and clear structure
